Assay results reported in patent US20110166112A1, “METHOD FOR STIMULATING PLATELET PRODUCTION” (Eisai, Inc., priority 2009, published 2011).

Test system: subjects with chronic ITP
Assay: Treatment-emergent bleeding events (WHO Bleeding Scale; Kaplan-Meier time to first bleeding event)
Format: in vivo, human
Source text: As used herein, the term “bleeding” refers to any bleeding, as measured by the World Health Organization's Bleeding Scale (e.g., Grade 0=no bleeding; Grade 1=petechial bleeding; Grade 2=clinical significant mild blood loss; […]=gross (severe) blood loss, requiring transfusion; Grade 5=debilitating blood loss, retinal or cerebral associated with fatality). In some embodiments, the bleeding may be due to a low platelet count.
Bleeding Events. During the combined study period, 43 (67.2%) of the 64 subjects reported a treatment-emergent bleeding event (Table 23). Gingival bleeding was the most frequently reported bleeding event, occurring in 7 subjects (10.9%). All were grade 1 (n=6) or grade 2 (n=1) and none were considered to be related to study drug.
Using Kaplan-Meier methods, the estimated median time to the first bleeding event was 8 weeks (95% CI: 4.7-15.3 weeks) after initiation of E5501 (FIG. 5).

[1] = Lower ⅓ dose (2.5-<8.85 mg), N=22
[2] = Middle ⅓ dose (≧8.85-<13.5 mg), N=22
[3] = Upper ⅓ dose (≧13.5-≦25.7 mg), N=20

O=C(Nc1nc(-c2cc(Cl)cs2)c(N2CCN(C3CCCCC3)CC2)s1)c1cnc(N2CCC(C(=O)O)CC2)c(Cl)c1 [E5501, 1-(3-chloro-5-{[4-(4-chlorothiophen-2-yl)-5-(4-cyclohexylpiperazin-1-yl)thiazol-2-yl]carbamoyl}pyridine-2-yl)piperidine-4-carboxylic acid]
Any TE bleeding event, % of subjects (E5501 Total, N=64): (67.2) %
Any TE bleeding event, n of subjects (E5501 Total, N=64): 43
TE bleeding event, highest toxicity Grade 1, % of subjects (E5501 Total, N=64): (45.3) %
TE bleeding event, highest toxicity Grade 1, n of subjects (E5501 Total, N=64): 29
TE bleeding event, highest toxicity Grade 2, % of subjects (E5501 Total, N=64): (17.2) %
TE bleeding event, highest toxicity Grade 2, n of subjects (E5501 Total, N=64): 11
TE bleeding event, highest toxicity Grade 3, % of subjects (E5501 Total, N=64): (4.7) %
TE bleeding event, highest toxicity Grade 3, n of subjects (E5501 Total, N=64): 3
TE bleeding event, highest toxicity Grade 4, % of subjects (E5501 Total, N=64): (1.6) %
TE bleeding event, highest toxicity Grade 4, n of subjects (E5501 Total, N=64): 1
TE bleeding event, highest toxicity Grade 5, n of subjects (E5501 Total, N=64): 0
estimated median time to the first bleeding event (Kaplan-Meier, after initiation of E5501, 95% CI: 4.7-15.3 weeks): 8 weeks
Any TE bleeding event, % of subjects [1]: (68.2) %
Any TE bleeding event, n of subjects [1]: 15
TE bleeding event, highest toxicity Grade 1, % of subjects [1]: (50.0) %
TE bleeding event, highest toxicity Grade 1, n of subjects [1]: 11
TE bleeding event, highest toxicity Grade 2, % of subjects [1]: (9.1) %
TE bleeding event, highest toxicity Grade 2, n of subjects [1]: 2
TE bleeding event, highest toxicity Grade 3, % of subjects [1]: (4.5) %
TE bleeding event, highest toxicity Grade 3, n of subjects [1]: 1
TE bleeding event, highest toxicity Grade 4, % of subjects [1]: (4.5) %
TE bleeding event, highest toxicity Grade 4, n of subjects [1]: 1
TE bleeding event, highest toxicity Grade 5, n of subjects [1]: 0
Any TE bleeding event, % of subjects [2]: (63.6) %
Any TE bleeding event, n of subjects [2]: 14
TE bleeding event, highest toxicity Grade 1, % of subjects [2]: (40.9) %
TE bleeding event, highest toxicity Grade 1, n of subjects [2]: 9
TE bleeding event, highest toxicity Grade 2, % of subjects [2]: (13.6) %
TE bleeding event, highest toxicity Grade 2, n of subjects [2]: 3
TE bleeding event, highest toxicity Grade 3, % of subjects [2]: (9.1) %
TE bleeding event, highest toxicity Grade 3, n of subjects [2]: 2
TE bleeding event, highest toxicity Grade 4, n of subjects [2]: 0
TE bleeding event, highest toxicity Grade 5, n of subjects [2]: 0
Any TE bleeding event, % of subjects [3]: 70.0%
Any TE bleeding event, n of subjects [3]: 14
TE bleeding event, highest toxicity Grade 1, % of subjects [3]: 40.0%
TE bleeding event, highest toxicity Grade 1, n of subjects [3]: 8
TE bleeding event, highest toxicity Grade 2, % of subjects [3]: 30.0%
TE bleeding event, highest toxicity Grade 2, n of subjects [3]: 6
TE bleeding event, highest toxicity Grade 3, n of subjects [3]: 0
TE bleeding event, highest toxicity Grade 4, n of subjects [3]: 0
TE bleeding event, highest toxicity Grade 5, n of subjects [3]: 0
subjects with a clinically significant, grade 3 or 4 bleeding event (combined study period): Four
subjects reporting a treatment-emergent bleeding event (combined study period, 64 subjects): 67.2%
